Marks after values point to notes of the source that are not given here.
What was measured:
SKBR3 membranes = assay: ELISA of control antibody binding to SKBR3 membranes; conditions: control antibody against CD20
Procedure: (§1) The wells of a 96-well ELISA plate (Nunc) were coated with membrane fractions of the Her-2/neu overexpressing cell line SKBR3 and as a control for non-specific antibody bonds with membrane fractions of the Her-2/neu negative cell line HTB 132 in PBS overnight.
(§2) The next day, non-specific binding sites were blocked by 3 percent BSA in PBS. Herceptin as well as herceptin after preincubation with relevant and irrelevant phage mimotopes or by mimotopes on KLH as well as on KLH alone were applied to the coated, blocked ELISA plate in a repeated test. […] HRP enters into a color reaction with the substrate. The result of this color reaction can be quantified by photometer. The absorption coefficient of 450/630 nm (OD) is determined.

Her-2/neu = assay: ELISA inhibition of the binding of herceptin and HER-2/neu (SKBR3 membranes) by mimotopes; conditions: in comparison to uninhibited herceptin control in ELISA, herceptin preincubated overnight
Procedure: For the ELISA inhibition assay one tries to prevent this bond by preincubation with mimotopes on phages or KLH as carrier.
as §1, §2

Substance: Rituximab: humanized monoclonal antibody directed against the phosphoprotein surface antigen on lymphocytes, CD20; control antibody
- signal on SKBR3 membranes (SKBR3 membranes): could not produce any signal

Substance: phage mimotope SEQ ID NO: 9: phage mimotope CHPTLLWPDFC (homo sapiens)
- Inhibition of herceptin binding with phage mimotopes (Her-2/neu): 30.2* Percent

Source: US7166694B2, “Vaccine against cancerous diseases which is based on mimotopes of antigens expressed on tumor cells” (priority 2000, dated 2007)
